Assay results as given in US20230148450A9, “BICYCLIC HETEROARYL COMPOUNDS AND USES THEREOF” (Revolution Medicines, Inc., priority 2019, published 2023).
Where a name gives a salt, the structure may show the parent alone. Read-outs that look alike come from different tables or passages of the source.

Legend:
[1] = tested on: cellular pERK in PC-9 cells (EGFR Ex19Del); assay: Potency Assay: pERK; format: cell-based; settings: Homo sapiens, read-out: SOS1 pERK IC50
Source text: The purpose of this assay is to measure the ability of test compounds to inhibit SOS1 function in cells. SOS1 activates RAS proteins by catalyzing the conversion of […] to […] in response to receptor tyrosine kinase activation. Activation of RAS induces a sequence of cellular signaling events that results in increased phosphorylation of ERK at […] (pERK). The procedure described below measures the level of cellular pERK in response to test compounds in PC-9 cells (EGFR Ex[…]). PC-9 cells were grown and maintained using media and procedures recommended by the ATCC. On the day prior to compound addition, cells were plated in 384-well cell culture plates (40 μL/well) and grown overnight in a 37° C., 5% CO2 incubator. Test compounds were prepared in 10, 3-fold dilutions in DMSO, with a top concentration of 10 mM. On the day of the assay, 40 nL of test compound was added to each well of cell culture plate using an Echo550 liquid handler (LabCyte). Concentrations of test compound were tested in duplicate with highest test concentration being 10 μM. After compound addition, cells were incubated for 1 hour at 37° C., 5% CO2. Following incubation, culture medium was removed and cells were washed once with phosphate buffered saline. Cellular pERK level was determined using the AlphaLISA SureFire Ultra p-ERK1/2 Assay Kit (PerkinElmer). Cells were lysed in 25 μL lysis buffer, with shaking at 600 RPM at room temperature for 15 minutes. Lysate (10 μL) was transferred to a 384-well Opti-plate (PerkinElmer) and 5 μL acceptor mix was added. The plate was centrifuged at 1000 RPM for 1 minute, and incubated in the dark for 2 hours. Following this incubation, 5 μL of donor mix was added, the plate was sealed and centrifuged at 1000 RPM for 1 minute, and the mixture was incubated for 2 hours at room temperature. Signal was read on an Envision plate reader (PerkinElmer) using standard AlphaLISA settings. Analysis of raw data was carried out in Excel (Microsoft) and Prism (GraphPad). Signal was plotted vs. the decadal logarithm of compound concentration, and IC50 was determined by fitting a 4-parameter sigmoidal concentration response model.

[2] = target: T1, SOS1 catalytic domain (residues 564-1049) (Homo sapiens, UniProt Q07889); assay: Binding affinity to SOS1 using Surface Plasmon Resonance (SPR); settings: avi-tagged SOS1 catalytic domain immobilized on sensor chip; read-out: SOS1 SPR Equilibrium Kd
T1 construct: SOS1 catalytic domain (residues 564-1049) immobilized on a sensor chip
T1 sequence (Q07889 564-1049): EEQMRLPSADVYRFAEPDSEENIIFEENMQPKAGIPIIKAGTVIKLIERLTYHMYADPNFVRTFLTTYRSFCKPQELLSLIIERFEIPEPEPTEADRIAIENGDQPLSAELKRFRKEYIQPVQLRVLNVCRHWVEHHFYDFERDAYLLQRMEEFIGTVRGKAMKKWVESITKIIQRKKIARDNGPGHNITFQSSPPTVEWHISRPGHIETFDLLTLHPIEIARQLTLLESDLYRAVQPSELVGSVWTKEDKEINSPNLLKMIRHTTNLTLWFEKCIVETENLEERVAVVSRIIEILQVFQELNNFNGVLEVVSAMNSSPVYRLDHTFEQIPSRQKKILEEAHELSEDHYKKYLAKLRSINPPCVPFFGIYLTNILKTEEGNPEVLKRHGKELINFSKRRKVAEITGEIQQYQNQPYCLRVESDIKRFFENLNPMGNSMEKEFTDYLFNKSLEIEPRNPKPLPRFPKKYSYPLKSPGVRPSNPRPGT
Source text: Potency Assay: Measurement of the Binding Affinity of Compounds of the Invention to SOS! using Surface Plasmon Resonance (SPR)
The purpose of the SPR assay was to measure the direct binding of compounds to SOS1 catalytic domain (residues 564-1049) immobilized on a sensor chip. Data was reported as equilibrium dissociation constant (Kd) values.
Using a GE Biacore 8K SPR instrument, avi-tagged SOS1 catalytic domain protein was immobilized to a level of approximately 6000 response units (RU) on a streptavidin-coated SPR sensor chip in assay buffer containing 0.01 M HEPES, 0.15 M NaCl and 0.05% v/v Surfactant P20. In assay buffer containing 2% DMSO, concentration series of test compounds were generated spanning 5 μM to 4.9 nM over ten 2-fold dilutions. For each test compound, a separate 0 μM sample was generated for use during subsequent double reference subtraction. Serially for each test compound, individual dilution samples were flowed over the immobilized SOS1 protein at a flow rate of 50 μL/minute to monitor the association with SOS1. Dissociation of bound test compound from the SOS1 protein was immediately monitored by flowing assay buffer over the sensor surface and monitoring the decrease in binding signal back to the baseline level seen in the absence of compound. This was repeated for all compound dilutions in each series. The binding level response for each test compound concentration was noted immediately prior to the end of the association phase, and a secondary plot generated showing binding response level versus test compound concentration generated for each compound dilution series.

[3] = target: T2, SOS1 nucleotide exchange of KRAS (catalytic domain of SOS1, residues 564-1049; wild-type KRAS) (Homo sapiens, UniProt Q07889); assay: Mode of Action Assay: Inhibition of SOS1 Nucleotide Exchange Activity (TR-FRET); format: biochemical; settings: TR-FRET signal
T2 construct: tagless catalytic domain of SOS1 (residues 564-1049)
T2 sequence (Q07889 564-1049): T1 sequence (Q07889 564-1049)
Procedure: The purpose of this assay was to characterize the inhibitory activity of compounds on SOS1 nucleotide exchange of KRAS. Data was reported as IC50 values based on the TR-FRET signal.
Note—the following protocol describes a procedure for monitoring the inhibition of SOS1 nucleotide exchange activity of wild-type KRAS in response to a compound of the invention. Other KRAS mutants and RAS isoforms maybe employed.
In assay buffer containing 20 mM HEPES, pH 7.5, 150 mM NaCl, 5 mM MgCl2, 0.05% Tween-20, 0.1% BSA, 1 mM DTT, concentration series of test compounds were generated spanning 100 μM to 1.7 nM over eleven 3-fold serial dilutions in a 384-well assay plate at a volume of 20 μL. The purified tagless catalytic domain of SOS1 (residues 564-1049) was first diluted in assay buffer at a concentration of 100 nM, and then 20 μL of the SOS1 containing solution was directly dispensed into compound plates. The SOS1/compound mixture was incubated at room temperature with constant mixing on an orbital shaker for 20 minutes to allow the reaction to reach equilibrium. A KRAS mixture was prepared by diluting 66.7 nM avi-tagged KRAS (residue 1-169), 3.33 nM Streptavidin-Tb and 333 nM EDA-GTP-DY-647P1 in assay buffer. This mixture was prepared immediately before addition to the SOS1/compound mixture to prevent intrinsic nucleotide exchange. Then 5 μL of the pre-incubated SOS1/compound mixture and 7.5 μL of the KRAS mixture were added sequentially in a 384-well low volume black round bottom plate and incubated at room temperature with constant shaking for 30 minutes. Time-resolved fluorescence was measured on a PerkinElmer Envision plate reader. DMSO and 10 μM of compound (i) were used as negative and positive controls, respectively.
Three replicates were performed for each compound. Data were normalized by the following: (Positive control—Sample signal)/(Positive control—negative control)*100. The data were fit using a four-parameter logistic fit.

[4] = PC-9 cells (EGFR Ex19Del), 1 hour incubation, AlphaLISA p-ERK1/2

Row | SMILES | IC50 [1, 4] | Kd [2] | IC50 [3] | IC50 ([1]; PC-9, 1 h)
1 | CNCc1ccccc1-c1ccc(C(C)Nc2nc(C)nn3cc(C4=CCNCC4)cc23)s1 (stereo not drawn) [Example 40, 2-methyl-N-[1-[5-[2-(methylaminomethyl)phenyl]-2-thienyl]ethyl]-6-(1,2,3,6-tetrahydropyridin-4-yl)pyrrolo[2,1-f][1,2,4]triazin-4-amine] | > 1 µM | ≤ 0.4 µM | > 1 µM | –
2 | C[C@@H](Nc1nccc2nc(C(=O)N3CCNCC3)cn12)c1cccc(C(F)F)c1F [Example 85, [5-[[(1R)-1-[3-(difluoromethyl)-2-fluoro-phenyl]ethyl]amino]imidazo[1,2-c]pyrimidin-2-yl]-piperazin-1-yl-methanone hydrochloride] | – | ≤ 0.4 µM | < 1 µM | < 1 µM
3 | C[C@@H](Nc1ncnc2sc(C(=O)N3CCOCC3)cc12)c1cccc(C(F)(F)CO)c1 [Example 83, (R)-(4-((1-(3-(1,1-difluoro-2-hydroxyethyl)phenyl)ethyl)amino)thieno[2,3-d]pyrimidin-6-yl)(morpholino)methanone] | < 1 µM | ≤ 0.4 µM | < 1 µM | –
4 | C[C@@H](Nc1ncnn2cc(C(=O)N3CCOCC3)cc12)c1cc(N)cc(C(F)(F)F)c1 [Example 50, N-[(1R)-1-[3-amino-5-(trifluoromethyl)phenyl]ethyl]-6-(morpholine-4-carbonyl)pyrrolo[2,1-f][1,2,4]triazin-4-amine] | < 1 µM | > 0.4 µM | < 1 µM | –
5 | C[C@@H](Nc1ncnn2cc(C(=O)N3CCN(C)CC3)cc12)c1cccc(C(F)F)c1F [Example 69] | < 1 µM | ≤ 0.4 µM | < 1 µM | –
6 | C[C@@H](Nc1ncnn2cc(C(=O)N3CC4(COC4)C3)cc12)c1cccc(C(F)F)c1F [Example 71] | < 1 µM | ≤ 0.4 µM | < 1 µM | –
7 | CC(=O)N1CC2(C1)CN(C(=O)c1cn3c(N[C@H](C)c4cccc(C(F)F)c4F)nccc3n1)C2 [Example 89] | < 1 µM | ≤ 0.4 µM | < 1 µM | –
8 | C[C@@H](Nc1nccc2nc(C(=O)N3CC4(CN(CC(F)(F)F)C4)C3)cn12)c1cccc(C(F)F)c1F [Example 91] | < 1 µM | ≤ 0.4 µM | < 1 µM | –
9 | C[C@@H](Nc1ncnn2cc(C(=O)N3CC4(C3)CN(C3COC3)C4)cc12)c1cccc(C(F)F)c1F [Example 72] | < 1 µM | ≤ 0.4 µM | < 1 µM | –
10 | C[C@@H](Nc1nc(Cl)nc2cc(C(=O)N3CCOCC3)[nH]c12)c1cc(N)cc(C(F)(F)F)c1 [Example 51, N-[(1R)-1-[3-amino-5-(trifluoromethyl)phenyl]ethyl]-2-chloro-6-(morpholine-4-carbonyl)-5H-pyrrolo[3,2-d]pyrimidin-4-amine] | > 1 µM | > 0.4 µM | > 1 µM | –
11 | Cc1nc(N[C@H](C)c2cc(N)cc(C(F)(F)F)c2)c2cc(C3(O)CC(O)C3)cn2n1 (stereo partly drawn) [Example 35, (R)-1-(4-((1-(3-amino-5-(trifluoromethyl)phenyl)ethyl)amino)-2-methylpyrrolo[2,1-f][1,2,4]triazin-6-yl)cyclobutane-1,3-diol] | > 1 µM | ≤ 0.4 µM | > 1 µM | –
12 | C[C@@H](Nc1nc(Cl)nc2c1nc(C(=O)N1CCOCC1)n2C)c1cccc(C(F)(F)CO)c1 [Example 103, (R)-(2-chloro-6-((1-(3-(1,1-difluoro-2-hydroxyethyl)phenyl)ethyl)amino)-9-methyl-9H-purin-8-yl)(morpholino)methanone] | < 1 µM | > 0.4 µM | < 1 µM | –
13 | C[C@@H](Nc1nccc2nc(C(=O)N3CCN(C4COC4)CC3)cn12)c1cccc(C(F)F)c1F [Example 87] | > 1 µM | ≤ 0.4 µM | < 1 µM | –
14 | C[C@@H](Nc1ncnc2cc(C(=O)N3CCOCC3)sc12)c1cc(N)cc(C(F)(F)F)c1 [Example 31, [4-[[(1R)-1-[3-amino-5-(trifluoromethyl)phenyl]ethyl]amino]thieno[3,2-d]pyrimidin-6-yl]-morpholino-methanone] | > 1 µM | ≤ 0.4 µM | > 1 µM | –
15 | C[C@@H](Nc1ncnc2sc(C(=O)N3CCOCC3)nc12)c1cc(N)cc(C(F)(F)F)c1 [Example 42, [7-[[(1R)-1-[3-amino-5-(trifluoromethyl)phenyl]ethyl]amino]thiazolo[5,4-d]pyrimidin-2-yl]-morpholino-methanone] | < 1 µM | ≤ 0.4 µM | < 1 µM | –
16 | C[C@@H](Nc1ncnn2cc(C(=O)N3CC4(CN(C)C4)C3)cc12)c1cccc(C(F)F)c1F [Example 70] | < 1 µM | ≤ 0.4 µM | < 1 µM | –
17 | Cc1nc(N[C@H](C)c2cc(N)cc(C(F)(F)F)c2)c2cc(C(=O)N3CCOCC3)cn2n1 [Example 41, [4-[[(1R)-1-[3-amino-5-(trifluoromethyl)phenyl]ethyl]amino]-2-methyl-pyrrolo[2,1-f][1,2,4]triazin-6-yl]morpholino-methanone] | < 1 µM | ≤ 0.4 µM | < 1 µM | –
18 | C[C@@H](Nc1nc(Cl)nn2cc(C(=O)N3CC4(CN(C)C4)C3)cc12)c1cccc(C(F)(F)F)c1 [Example 97] | < 1 µM | ≤ 0.4 µM | < 1 µM | –
